ChEMBL document CHEMBL1833857, “Histone deacetylase activators: N-acetylthioureas serve as highly potent and isozyme selective activators for human histone deacetylase-8 on a fluorescent substrate” (Bioorg Med Chem Lett, 2011)
Active and inactive are the calls of the source. No cut-off for these calls is given here.

How the values were obtained:
[1] = biological target: Histone deacetylase 2 (Homo sapiens) (UniProt Q92769); assay: Activation of HDAC2 using Fluor-de-Lys as substrate at 10 uM by spectrofluorometry
Histone deacetylase 2 (Homo sapiens), sequence (Q92769 whole entry): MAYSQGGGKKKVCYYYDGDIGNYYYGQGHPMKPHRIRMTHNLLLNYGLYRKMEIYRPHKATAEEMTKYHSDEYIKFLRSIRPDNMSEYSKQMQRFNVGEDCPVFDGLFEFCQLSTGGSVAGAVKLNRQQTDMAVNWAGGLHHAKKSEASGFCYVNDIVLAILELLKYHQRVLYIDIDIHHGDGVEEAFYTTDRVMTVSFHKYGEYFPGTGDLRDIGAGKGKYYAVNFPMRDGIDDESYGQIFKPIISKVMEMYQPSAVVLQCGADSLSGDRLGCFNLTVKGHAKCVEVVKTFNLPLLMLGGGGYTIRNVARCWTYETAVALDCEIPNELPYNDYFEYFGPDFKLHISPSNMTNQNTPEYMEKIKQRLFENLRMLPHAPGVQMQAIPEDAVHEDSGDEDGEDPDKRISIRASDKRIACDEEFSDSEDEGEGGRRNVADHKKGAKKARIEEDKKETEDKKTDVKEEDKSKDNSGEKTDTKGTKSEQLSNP

[2] = biological target: Histone deacetylase 4 (Homo sapiens) (UniProt P56524); assay: Activation of HDAC4 using trifluoroacetyl-lysine containing fluorogenic substrate at 10 uM by spectrofluorometry
Histone deacetylase 4 (Homo sapiens), sequence (P56524 whole entry): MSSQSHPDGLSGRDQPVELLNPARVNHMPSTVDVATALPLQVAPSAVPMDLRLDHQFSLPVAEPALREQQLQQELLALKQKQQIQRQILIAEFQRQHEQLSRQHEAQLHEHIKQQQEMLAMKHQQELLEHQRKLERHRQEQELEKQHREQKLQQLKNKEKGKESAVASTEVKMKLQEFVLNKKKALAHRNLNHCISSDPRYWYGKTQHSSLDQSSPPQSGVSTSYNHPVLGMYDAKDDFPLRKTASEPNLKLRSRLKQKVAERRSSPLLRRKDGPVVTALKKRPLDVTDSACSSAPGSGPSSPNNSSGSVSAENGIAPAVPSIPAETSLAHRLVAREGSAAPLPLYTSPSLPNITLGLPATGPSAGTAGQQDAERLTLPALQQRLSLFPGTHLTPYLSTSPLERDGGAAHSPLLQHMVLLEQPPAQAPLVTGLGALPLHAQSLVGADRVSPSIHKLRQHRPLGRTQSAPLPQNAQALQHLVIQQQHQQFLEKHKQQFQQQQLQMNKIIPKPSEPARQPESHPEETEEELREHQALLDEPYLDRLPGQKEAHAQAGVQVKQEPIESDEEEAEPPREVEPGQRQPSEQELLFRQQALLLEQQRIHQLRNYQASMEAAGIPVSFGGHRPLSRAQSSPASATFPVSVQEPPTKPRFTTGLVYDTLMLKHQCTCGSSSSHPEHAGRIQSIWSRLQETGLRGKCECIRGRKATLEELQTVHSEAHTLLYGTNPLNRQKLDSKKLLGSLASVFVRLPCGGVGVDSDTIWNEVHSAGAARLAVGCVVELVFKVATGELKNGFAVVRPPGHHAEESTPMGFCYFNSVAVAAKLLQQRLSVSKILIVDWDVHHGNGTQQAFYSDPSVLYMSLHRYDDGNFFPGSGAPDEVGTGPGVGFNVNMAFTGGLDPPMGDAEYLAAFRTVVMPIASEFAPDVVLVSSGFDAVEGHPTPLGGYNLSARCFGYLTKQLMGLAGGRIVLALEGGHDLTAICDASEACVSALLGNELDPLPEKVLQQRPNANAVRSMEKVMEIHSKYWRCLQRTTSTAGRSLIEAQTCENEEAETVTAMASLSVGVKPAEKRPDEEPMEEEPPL

[3] = biological target: T1, Protein deacetylase HDAC6 (Homo sapiens) (UniProt Q9UBN7); assay: Inhibition of HDAC6 using Fluor-de-Lys as substrate at 100 uM by spectrofluorometry
T1 sequence (whole entry): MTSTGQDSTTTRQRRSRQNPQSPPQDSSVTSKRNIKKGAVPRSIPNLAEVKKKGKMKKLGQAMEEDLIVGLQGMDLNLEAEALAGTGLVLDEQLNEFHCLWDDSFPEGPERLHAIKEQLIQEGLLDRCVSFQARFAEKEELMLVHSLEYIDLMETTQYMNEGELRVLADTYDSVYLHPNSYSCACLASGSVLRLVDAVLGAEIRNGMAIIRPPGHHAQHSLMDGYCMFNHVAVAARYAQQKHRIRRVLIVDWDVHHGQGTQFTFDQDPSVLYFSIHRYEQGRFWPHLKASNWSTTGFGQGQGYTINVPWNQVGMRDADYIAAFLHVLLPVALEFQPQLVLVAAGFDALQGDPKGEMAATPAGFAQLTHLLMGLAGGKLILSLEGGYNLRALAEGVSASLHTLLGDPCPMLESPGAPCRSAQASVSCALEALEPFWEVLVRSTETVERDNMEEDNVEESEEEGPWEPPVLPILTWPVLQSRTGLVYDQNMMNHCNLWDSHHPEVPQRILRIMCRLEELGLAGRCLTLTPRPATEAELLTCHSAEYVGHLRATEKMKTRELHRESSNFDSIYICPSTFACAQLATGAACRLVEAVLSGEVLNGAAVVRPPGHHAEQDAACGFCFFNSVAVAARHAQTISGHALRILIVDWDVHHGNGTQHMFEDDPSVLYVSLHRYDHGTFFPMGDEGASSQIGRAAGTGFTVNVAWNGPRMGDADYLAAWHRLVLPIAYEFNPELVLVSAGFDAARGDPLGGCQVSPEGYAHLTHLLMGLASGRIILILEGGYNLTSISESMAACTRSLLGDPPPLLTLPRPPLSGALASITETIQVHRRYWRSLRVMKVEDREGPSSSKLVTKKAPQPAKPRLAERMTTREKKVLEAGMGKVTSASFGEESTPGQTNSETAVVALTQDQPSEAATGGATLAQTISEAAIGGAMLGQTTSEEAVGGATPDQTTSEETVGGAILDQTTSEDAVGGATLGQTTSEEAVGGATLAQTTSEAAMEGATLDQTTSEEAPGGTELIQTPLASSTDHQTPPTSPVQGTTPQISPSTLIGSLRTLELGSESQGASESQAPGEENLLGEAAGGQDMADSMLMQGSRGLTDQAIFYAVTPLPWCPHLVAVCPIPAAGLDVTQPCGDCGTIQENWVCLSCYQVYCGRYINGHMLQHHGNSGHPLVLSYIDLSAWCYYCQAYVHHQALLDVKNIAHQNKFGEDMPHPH

[4] = biological target: Histone deacetylase 3 (Homo sapiens) (UniProt O15379); assay: Activation of HDAC3 using Fluor-de-Lys as substrate at 100 uM by spectrofluorometry
Histone deacetylase 3 (Homo sapiens), sequence (O15379 whole entry): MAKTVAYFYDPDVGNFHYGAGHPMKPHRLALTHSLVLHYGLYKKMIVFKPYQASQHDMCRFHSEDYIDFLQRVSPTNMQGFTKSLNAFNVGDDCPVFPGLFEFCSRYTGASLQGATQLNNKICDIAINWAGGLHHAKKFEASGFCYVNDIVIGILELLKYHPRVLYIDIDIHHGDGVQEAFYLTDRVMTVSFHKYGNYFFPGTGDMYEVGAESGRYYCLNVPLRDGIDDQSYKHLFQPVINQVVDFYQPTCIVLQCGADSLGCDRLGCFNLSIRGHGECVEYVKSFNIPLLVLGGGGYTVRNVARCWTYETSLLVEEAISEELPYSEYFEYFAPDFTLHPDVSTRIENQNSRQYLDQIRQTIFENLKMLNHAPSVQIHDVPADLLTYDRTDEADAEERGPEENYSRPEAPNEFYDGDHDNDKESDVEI

[5] = biological target: Histone deacetylase 3 (Homo sapiens) (UniProt O15379); assay: Inhibition of HDAC3 using Fluor-de-Lys as substrate at 100 uM by spectrofluorometry
[6] = biological target: T2, Histone deacetylase 11 (Homo sapiens) (UniProt Q96DB2); assay: Activation of HDAC11 using Fluor-de-Lys as substrate at 10 uM by spectrofluorometry
T2 sequence (whole entry): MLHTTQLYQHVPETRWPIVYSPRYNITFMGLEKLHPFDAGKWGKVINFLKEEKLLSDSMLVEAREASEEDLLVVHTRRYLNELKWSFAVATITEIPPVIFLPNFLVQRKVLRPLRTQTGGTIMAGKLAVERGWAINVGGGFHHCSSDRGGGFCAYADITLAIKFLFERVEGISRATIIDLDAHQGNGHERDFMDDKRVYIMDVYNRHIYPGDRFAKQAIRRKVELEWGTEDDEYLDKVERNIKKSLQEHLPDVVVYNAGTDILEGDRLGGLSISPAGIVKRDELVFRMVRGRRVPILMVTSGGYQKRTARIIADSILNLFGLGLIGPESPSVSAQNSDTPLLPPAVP

[7] = biological target: Histone deacetylase 2 (Homo sapiens) (UniProt Q92769); assay: Activation of HDAC2 using Fluor-de-Lys as substrate at 100 uM by spectrofluorometry
[8] = biological target: T3, Polyamine deacetylase HDAC10 (Homo sapiens) (UniProt Q969S8); assay: Activation of HDAC10 using Fluor-de-Lys as substrate at 10 uM by spectrofluorometry
T3 sequence (whole entry): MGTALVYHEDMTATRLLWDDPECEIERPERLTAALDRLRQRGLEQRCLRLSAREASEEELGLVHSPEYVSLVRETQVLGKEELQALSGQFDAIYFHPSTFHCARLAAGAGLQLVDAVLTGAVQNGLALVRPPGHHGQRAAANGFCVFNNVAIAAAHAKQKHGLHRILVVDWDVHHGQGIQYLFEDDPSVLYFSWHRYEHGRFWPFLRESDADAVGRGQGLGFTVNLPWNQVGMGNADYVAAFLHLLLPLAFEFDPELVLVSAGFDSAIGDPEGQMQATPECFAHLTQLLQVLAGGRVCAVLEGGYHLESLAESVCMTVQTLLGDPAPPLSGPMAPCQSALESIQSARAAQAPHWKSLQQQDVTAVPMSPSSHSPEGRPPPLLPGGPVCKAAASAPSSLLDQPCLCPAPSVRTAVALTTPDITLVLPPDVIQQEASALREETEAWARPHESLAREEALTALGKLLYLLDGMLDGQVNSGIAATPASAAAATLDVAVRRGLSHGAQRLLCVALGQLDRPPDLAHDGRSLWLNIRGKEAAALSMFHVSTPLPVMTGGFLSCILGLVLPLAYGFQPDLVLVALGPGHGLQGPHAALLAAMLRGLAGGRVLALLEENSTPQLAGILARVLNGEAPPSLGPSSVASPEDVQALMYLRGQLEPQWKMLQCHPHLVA

[9] = biological target: Histone deacetylase 1 (Homo sapiens) (UniProt Q13547); assay: Inhibition of HDAC1 using Fluor-de-Lys as substrate at 100 uM by spectrofluorometry
Histone deacetylase 1 (Homo sapiens), sequence (Q13547 whole entry): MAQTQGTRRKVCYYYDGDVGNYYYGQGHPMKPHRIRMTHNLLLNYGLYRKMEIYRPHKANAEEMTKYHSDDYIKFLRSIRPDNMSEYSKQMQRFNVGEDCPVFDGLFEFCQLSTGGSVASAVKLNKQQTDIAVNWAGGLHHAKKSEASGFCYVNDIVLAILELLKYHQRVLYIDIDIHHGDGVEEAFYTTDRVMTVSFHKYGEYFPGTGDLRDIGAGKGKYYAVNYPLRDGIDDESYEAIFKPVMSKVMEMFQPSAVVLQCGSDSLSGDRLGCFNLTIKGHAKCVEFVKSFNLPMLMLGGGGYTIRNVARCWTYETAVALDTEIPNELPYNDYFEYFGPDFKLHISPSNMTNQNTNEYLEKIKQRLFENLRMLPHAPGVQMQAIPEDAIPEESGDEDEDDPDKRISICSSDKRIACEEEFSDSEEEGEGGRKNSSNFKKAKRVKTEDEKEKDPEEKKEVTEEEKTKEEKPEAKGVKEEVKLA

[10] = biological target: T4, Histone deacetylase 8 (Homo sapiens) (UniProt Q9BY41); assay: Activation of recombinant human HDAC8 assessed as ratio of the initial rate of reaction in the absence and presence of compound using Fluor-de-Lys as substrate at 10 uM by spectrofluorometry
T4 sequence (whole entry): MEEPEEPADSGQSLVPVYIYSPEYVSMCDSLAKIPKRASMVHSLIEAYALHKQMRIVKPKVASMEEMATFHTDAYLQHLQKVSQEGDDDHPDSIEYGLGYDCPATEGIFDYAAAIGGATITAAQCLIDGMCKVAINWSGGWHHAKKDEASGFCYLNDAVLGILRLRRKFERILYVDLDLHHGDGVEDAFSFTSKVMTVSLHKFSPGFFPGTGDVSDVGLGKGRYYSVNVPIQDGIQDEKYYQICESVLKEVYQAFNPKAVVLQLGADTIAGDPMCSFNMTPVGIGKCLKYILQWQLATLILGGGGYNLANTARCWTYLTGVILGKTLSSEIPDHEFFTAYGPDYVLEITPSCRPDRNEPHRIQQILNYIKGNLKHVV

[11] = biological target: Histone deacetylase 2 (Homo sapiens) (UniProt Q92769); assay: Inhibition of HDAC2 using Fluor-de-Lys as substrate at 100 uM by spectrofluorometry
[12] = biological target: Histone deacetylase 3 (Homo sapiens) (UniProt O15379); assay: Activation of HDAC3 using Fluor-de-Lys as substrate at 10 uM by spectrofluorometry
[13] = biological target: T2, Histone deacetylase 11 (Homo sapiens); assay: Inhibition of HDAC11 using Fluor-de-Lys as substrate at 100 uM by spectrofluorometry
[14] = biological target: T1, Protein deacetylase HDAC6 (Homo sapiens); assay: Activation of HDAC6 using Fluor-de-Lys as substrate at 10 uM by spectrofluorometry
[15] = biological target: Histone deacetylase 4 (Homo sapiens) (UniProt P56524); assay: Activation of HDAC4 using trifluoroacetyl-lysine containing fluorogenic substrate at 100 uM by spectrofluorometry
[16] = biological target: T2, Histone deacetylase 11 (Homo sapiens); assay: Activation of HDAC11 using Fluor-de-Lys as substrate at 100 uM by spectrofluorometry
[17] = biological target: T3, Polyamine deacetylase HDAC10 (Homo sapiens); assay: Inhibition of HDAC10 using Fluor-de-Lys as substrate at 100 uM by spectrofluorometry
[18] = biological target: T3, Polyamine deacetylase HDAC10 (Homo sapiens); assay: Activation of HDAC10 using Fluor-de-Lys as substrate at 100 uM by spectrofluorometry
[19] = biological target: Histone deacetylase 4 (Homo sapiens) (UniProt P56524); assay: Inhibition of HDAC4 using trifluoroacetyl-lysine containing fluorogenic substrate at 100 uM by spectrofluorometry
[20] = biological target: T1, Protein deacetylase HDAC6 (Homo sapiens); assay: Activation of HDAC6 using Fluor-de-Lys as substrate at 100 uM by spectrofluorometry
[21] = biological target: T4, Histone deacetylase 8 (Homo sapiens); assay: Maximum activation of recombinant human HDAC8 using Fluor-de-Lys as substrate by spectrofluorometry relative to control
[22] = biological target: T4, Histone deacetylase 8 (Homo sapiens); assay: Activation of recombinant human HDAC8 assessed as decrease in Km using Fluor-de-Lys as substrate by spectrofluorometry
[23] = biological target: T4, Histone deacetylase 8 (Homo sapiens); assay: Activation of recombinant human HDAC8 assessed as increase in ratio of Kcat to Km using Fluor-de-Lys as substrate by spectrofluorometry relative to control
[24] = biological target: T4, Histone deacetylase 8 (Homo sapiens); assay: Activation of recombinant human HDAC8 assessed as increase in Kcat using Fluor-de-Lys as substrate by spectrofluorometry relative to control
[25] = biological target: T4, Histone deacetylase 8 (Homo sapiens); assay: Activation of recombinant human HDAC8 using Fluor-de-Lys as substrate by spectrofluorometry
[26] = Solubility of the compound at 100 uM; format: physicochemical
[27] = biological target: Histone deacetylase 1 (Homo sapiens) (UniProt Q13547); assay: Activation of HDAC1 using Fluor-de-Lys as substrate at 100 uM by spectrofluorometry
[28] = biological target: Histone deacetylase 1 (Homo sapiens) (UniProt Q13547); assay: Activation of HDAC1 using Fluor-de-Lys as substrate at 10 uM by spectrofluorometry

| SMILES | Activity [1] | Activity [2] | inhibition [3] | Activity [4] | inhibition [5] | Activity [6] | Activity [7] | Activity [8] | inhibition [9] | fold change (FC) [10] | inhibition [11] | Activity [12] | inhibition [13] | Activity [14] | Activity [15] | Activity [16] | inhibition [17] | Activity [18] | inhibition [19] | Activity [20] | further results |
| --- | --- | --- | --- | --- | --- | --- | --- | --- | --- | --- | --- | --- | --- | --- | --- | --- | --- | --- | --- | --- | --- |
| O=C(NC(=S)NC1CCCCC1)c1ccccc1 | inactive | inactive | inactive | inactive | inactive | inactive | inactive | inactive | 5% | 5.6 | inactive | inactive | inactive | inactive | inactive | inactive | inactive | inactive | inactive | inactive | – |
| Cc1cc(=O)oc2cc(NC(=S)NC(=O)c3ccccc3)ccc12 | – | inactive | – | – | – | – | – | – | – | 2 | – | – | – | – | inactive | – | – | – | – | – | solubility [26]: Insoluble |
| O=C(NC(=S)Nc1ccccc1)c1ccccc1F | inactive | inactive | inactive | inactive | inactive | inactive | inactive | inactive | 5% | 3.5 | inactive | inactive | inactive | inactive | inactive | inactive | inactive | inactive | inactive | inactive | – |

Further lines, with some results ahead:

| Activity [1] | Activity [2] | inhibition [3] | Activity [4] | inhibition [5] | Activity [6] | Activity [7] | Activity [8] | inhibition [9] | fold change (FC) [10] | inhibition [11] | Activity [12] | inhibition [13] | Activity [14] | Activity [15] | Activity [16] | inhibition [17] | Activity [18] | inhibition [19] | Activity [20] | SMILES | further results |
| --- | --- | --- | --- | --- | --- | --- | --- | --- | --- | --- | --- | --- | --- | --- | --- | --- | --- | --- | --- | --- | --- |
| – | inactive | 30% | – | 6% | – | – | – | 8% | 12 | 8% | – | 14% | – | inactive | – | 15% | – | inactive | – | O=C(NC(=S)Nc1ccccc1)c1ccccc1 | fold change (FC) [21]: 26.8; fold change (FC) [22]: 3; fold change (FC) [23]: 16; fold change (FC) [24]: 5; Ka [25]: 12.4 µM |
| inactive | inactive | inactive | inactive | inactive | – | inactive | inactive | inactive | 2 | inactive | inactive | 6% | inactive | inactive | – | inactive | inactive | inactive | inactive | O=C(NC(=S)NCCc1ccccc1)c1ccccc1 | Activity [27]: inactive; Activity [28]: inactive |
| inactive | inactive | inactive | inactive | inactive | inactive | inactive | inactive | 5% | 3.3 | inactive | inactive | inactive | inactive | inactive | inactive | inactive | inactive | inactive | inactive | O=C(NC(=S)NCc1ccccc1)c1ccccc1 | – |
| – | inactive | inactive | – | 5% | inactive | – | inactive | inactive | 1.2 | 7% | – | inactive | inactive | inactive | inactive | inactive | inactive | inactive | inactive | O=C(NC(=S)NCc1ccc(C(F)(F)F)cc1)c1ccccc1 | Activity [27]: inactive; Activity [28]: inactive |
